According to patent US20190105261A1, “METHODS AND COMPOSITIONS FOR TOPICAL DELIVERY” (Illustris Pharmaceuticals, Inc., priority 2017, published 2019):

Tests used:
[1] = Gabapentin delivery into porcine skin grafts, UPLC-MS; format: in vitro ADME; details: 1% gabapentin, 12-20 hours
Description: Delivery of gabapentin with hyaluronic acid into skin in vitro was measured using porcine skin grafts, and compared to delivery of gabapentin from a composition of gabapentin in saline (with no decoy molecule). Groups consisted of A) 1% gabapentin in saline (n=8 replicates), B) 1% gabapentin plus 1% sodium hyaluronate decoy of 3,000 Da in saline (n=8 replicates) or C) saline alone (n=8 replicates) in donor cells.
Briefly, tissues were incubated overnight in 0.5 mL of 50% acetonitrile in deionized water at 55° C. with agitation. Calibration standards and tissue extraction solvent samples were diluted 10× in deionized water before analysis. Diluted standards and samples were analyzed at 1 μL injection volumes. Concentrations were reported as μg/g of gabapentin in tissue.

[2] = 1 wt. % minocycline, in vitro
Description: Delivery of minocycline into porcine skin in vitro was measured and compared to delivery of minocycline from a composition of minocycline in saline (i.e, with no decoy molecule). Compositions were prepared containing of 1 wt. % minocycline and 1% of decoy molecule of hyaluronic acid with three molecular weights: 10,000 Da mean, 20,000 Da mean, and 30,000 Da mean. A control formulation containing 1 wt % minocycline in saline was also prepared

[3] = Sodium salicylate penetration into mid-dermal grafts, OD290 (Example 21); details: 1% sodium salicylate, 12-20 hours
Description: Replicates of mid-dermal grafts (grafts and punches for flux rig per Illustris sops), were employed in a transcutaneous flux rig per relevant protocols. […] Flux was continued for 12-20 hours with samples applied and left on donor surfaces.

[4] = 12-20 hours
Description: Porcine buccal tissue was harvested and cleaned of additional tissue. Punch biopsies (n=4 each) were obtained and employed in a transcutaneous flux rig per relevant protocols. […] Flux was continued for 12-20 hours with samples applied and left on donor surfaces.

[5] = in vivo, po; cited from earlier work
[6] = 1% sildenafil, 12-20 hours
Description: Replicates of mid-dermal grafts were employed in a transcutaneous flux rig per relevant protocols.

[7] = Oral sildenafil bioavailability and assumed tissue concentration; details: assuming uniform tissue distribution, average 75 kg male

NCC1(CC(=O)O)CCCCC1 [gabapentin alone, gabapentin]
tissue levels of gabapentin [1]: 0.09 μg of gabapentin per gram of tissue

CN(C)c1ccc(O)c2c1C[C@H]1C[C@H]3[C@H](N(C)C)C(O)=C(C(N)=O)C(=O)[C@@]3(O)C(O)=C1C2=O [minocycline]
penetration of minocycline into porcine skin [2]: low native penetration

O=C([O-])c1ccccc1O.[Na+] [Sodium salicylate, sodium salicylate]
OD290 above saline (sodium salicylate in skin homogenate) [3]: 0.0165 AU

O=C(O)c1ccccc1O [salicylate alone, salicylate]
salicylate penetration through buccal tissue versus saline alone [4]: not statistically significant over saline alone

CCCc1nn(C)c2c(=O)[nH]c(-c3cc(S(=O)(=O)N4CCN(C)CC4)ccc3OCC)nc12 [Sildenafil alone, sildenafil]
bioavailability [5]: 41% | sildenafil tissue concentration [6]: not detectable | tissue concentration at currently approved therapeutic dose [7]: 0.137 ug sildenafil per g of tissue
